pIC50: −log10 of the molar value. The source made the active and inactive calls.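 Rule for the calls: active = compounds whose fitted concentration for half-maximal reporter inhibition is 10 µM or lower; inactive = the rest.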
Molecular target: COUP transcription factor 2 (Homo sapiens) (UniProt P24468)
Experiment: COUP-TFII reporter suppression IC50 – cell-based, luciferase reporter, HEK293, powder samples, round 000, late-stage follow-up (AID 743284)
Conditions: HEK293 NGFI-A luciferase reporter, luminescence

COUP transcription factor 2 (Homo sapiens), sequence (P24468 whole entry, looked up): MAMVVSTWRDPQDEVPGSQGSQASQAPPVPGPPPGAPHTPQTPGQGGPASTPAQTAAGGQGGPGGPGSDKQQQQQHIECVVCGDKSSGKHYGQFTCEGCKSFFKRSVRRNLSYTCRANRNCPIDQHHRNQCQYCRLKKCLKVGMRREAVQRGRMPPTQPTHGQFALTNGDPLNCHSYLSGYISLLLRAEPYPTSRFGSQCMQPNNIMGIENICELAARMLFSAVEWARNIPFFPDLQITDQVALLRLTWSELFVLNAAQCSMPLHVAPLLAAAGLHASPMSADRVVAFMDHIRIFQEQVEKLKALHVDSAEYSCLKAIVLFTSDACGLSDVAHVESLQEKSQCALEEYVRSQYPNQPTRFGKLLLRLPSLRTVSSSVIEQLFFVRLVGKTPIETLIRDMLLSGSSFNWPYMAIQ

Row | SMILES | pIC50 | IC50
1 | COc1ccc(C2=Nn3c([n+](C)c4ccccc43)SC2)cc1 | 5.32 | 
2 | Cc1sc2ncnc(NCC3COc4ccccc4O3)c2c1C (stereo not drawn) | 5.49 | 
3 | Cc1ccc(S(=O)(=O)CC2CSc3nc4ccccc4n32)cc1 (stereo not drawn) | 5.38 | 
4 | CCOc1cc(S(=O)(=O)NCc2ccncc2)ccc1Cl | 5.69 | 
5 | O=C(Nc1ccncc1)c1ccc(Cl)c(S(=O)(=O)N2CCc3ccccc32)c1 | 5.41 | 
6 | Cc1sc2ncnc(NCCc3ccc(S(N)(=O)=O)cc3)c2c1C | 5.24 | 
7 | O=S(=O)(NCC1CCCO1)c1ccc(-c2ccc(S(=O)(=O)NCC3CCCO3)cc2)cc1 (stereo not drawn) | 5.73 | 
8 | CCN(CC)S(=O)(=O)c1cccc(NC(=O)CNc2cccc(S(=O)(=O)N3CCCC3)c2)c1 | 5.40 | 
9 | CN(CC1CCCO1)S(=O)(=O)c1ccc(C(=O)Nc2nc3cc4c(cc3s2)OCO4)cc1 (stereo not drawn) | 5.70 | 
10 | CC1Cc2cc(-c3csc(NC(=O)Cc4cccs4)n3)ccc2N1S(C)(=O)=O (stereo not drawn) | 5.64 | 
11 | CC(Nc1ncnc2ccccc12)c1ccccc1 (stereo not drawn) | 5.30 | 
12 | CCOC(=O)C1CCCN(S(=O)(=O)c2ccc(S(=O)(=O)N(CC)CC)cc2)C1 (stereo not drawn) | 5.52 | 
13 | Cc1oc(-c2ccc(Cl)cc2)nc1CS(=O)CC(=O)NCCCN1CCN(Cc2ccccc2)CC1 (stereo not drawn) | 5.20 | 
14 | CCC1CCCCN1C(=O)c1cc(COc2ccc3ncccc3c2)on1 (stereo not drawn) | 5.48 | 
15 | CCOC(=O)N1CCN(C(=O)CSCC(=O)Nc2nc(-c3ccc(-c4ccccc4)cc3)cs2)CC1 | 5.54 | 
16 | Cc1cc(C)c(S(=O)(=O)NCc2ccncc2)c(C)c1 | 5.27 | 

Further lines, results first:

Row | pIC50 | IC50 | SMILES
17 | 5.46 |  | COc1ccc(NS(=O)(=O)c2cccc(NC(=O)c3ccc(Cl)nc3)c2)cc1
18 | 5.16 |  | Cc1cc(-n2c(C)cc(C(=O)CSc3ncnc4ccccc34)c2C)no1
19 | 5.49 |  | Cc1nn(C)c(C)c1CN(C)S(=O)(=O)c1ccc2ccccc2c1
20 | 5.50 |  | COc1ccc(OC)c(CCNC(=O)Cn2nc(C)c3c(C)n(-c4ccc(C)cc4)nc3c2=O)c1
21 | 5.75 |  | COc1ccc(CCNc2ncnc3sccc23)cc1OC
22 | 6.23 |  | CC(=O)Nc1ccccc1OCC(=O)c1cc(C)n(Cc2cccs2)c1C
23 | 5.46 |  | Cc1ccc(OCCN2CCN(c3ncnc4sc(C)c(C)c34)CC2)cc1
24 | 5.86 |  | Cn1nccc1C(=O)NC1CCCc2c1cnn2-c1ccc(C(C)(C)C)cc1 (stereo not drawn)
25 |  | inactive | Cc1cc(-n2nc3ccccc3n2)c2oc(SCC(=O)NC(C)(C)C)nc2c1
26 | 5.56 |  | COc1ccc(CN(C)c2ccc(S(=O)(=O)N3CCN(C)CC3)cc2[N+](=O)[O-])cc1OC
27 | 5.24 |  | COc1ccc(NS(=O)(=O)c2ccc(-c3coc(C)n3)cc2)cc1OC
28 | 5.83 |  | COc1ccc(CCNc2ncnc3sc(C)cc23)cc1OC
